Holding throughout (assay): relative viability (nuclei count vs DMSO), 5 days (fraction); higher = more cells survive
Compound in the assay “Etoposide + Vorinostat”: COc1cc([C@@H]2c3cc4c(cc3[C@@H](O[C@@H]3O[C@@H]5CO[C@@H](C)O[C@H]5[C@H](O)[C@H]3O)[C@H]3COC(=O)[C@H]23)OCO4)cc(OC)c1O [Etoposide] + O=C(CCCCCCC(=O)Nc1ccccc1)NO [Vorinostat] (partner 1 µM)
In a few lines: (§1)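 Each reported value is a median over duplicate plates. It expresses relative viability: treated-well nuclei count divided by vehicle-well nuclei count. Lung cancer cell lines in 1536-well plates were dosed by pin tool a day after seeding, alone with one drug or with a fixed anchor-drug dose plus five library-drug doses (not always all listed) in √10 steps, and nuclei were counted after 5 days.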

Compound in the assay “Bleomycin + Trametinib”: CC1=C(N=C(N=C1N)[C@H](CC(=O)N)NC[C@@H](C(=O)N)N)C(=O)N[C@@H]([C@H](C2=CN=CN2)OC3C(C(C(C(O3)CO)O)O)OC4C(C(C(C(O4)CO)O)OC(=O)N)O)C(=O)N[C@H](C)[C@H]([C@H](C)C(=O)N[C@@H]([C@@H](C)O)C(=O)NCCC5=NC(=CS5)C6=NC(=CS6)C(=O)NCCC[S+](C)C)O [Bleomycin] + CC(=O)Nc1cccc(-n2c(=O)n(C3CC3)c(=O)c3c(Nc4ccc(I)cc4F)n(C)c(=O)c(C)c32)c1 [Trametinib] (partner 0.02 µM)
The following applies: main component drawn. In a few lines: as §1

Compound in the assay “Bleomycin + Phenformin”: CC1=C(N=C(N=C1N)[C@H](CC(=O)N)NC[C@@H](C(=O)N)N)C(=O)N[C@@H]([C@H](C2=CN=CN2)OC3C(C(C(C(O3)CO)O)O)OC4C(C(C(C(O4)CO)O)OC(=O)N)O)C(=O)N[C@H](C)[C@H]([C@H](C)C(=O)N[C@@H]([C@@H](C)O)C(=O)NCCC5=NC(=CS5)C6=NC(=CS6)C(=O)NCCC[S+](C)C)O [Bleomycin] + N=C(N)NC(=N)NCCc1ccccc1 [Phenformin] (partner 250 µM)
The settings on record: main component drawn. In a few lines: as §1

Compound in the assay “Bleomycin + Alpelisib”: CC1=C(N=C(N=C1N)[C@H](CC(=O)N)NC[C@@H](C(=O)N)N)C(=O)N[C@@H]([C@H](C2=CN=CN2)OC3C(C(C(C(O3)CO)O)O)OC4C(C(C(C(O4)CO)O)OC(=O)N)O)C(=O)N[C@H](C)[C@H]([C@H](C)C(=O)N[C@@H]([C@@H](C)O)C(=O)NCCC5=NC(=CS5)C6=NC(=CS6)C(=O)NCCC[S+](C)C)O [Bleomycin] + Cc1nc(NC(=O)N2CCC[C@H]2C(N)=O)sc1-c1ccnc(C(C)(C)C(F)(F)F)c1 [Alpelisib] (partner 2 µM)
The following applies: main component drawn. In a few lines:
as §1

For the cell line HCC-44, the relative viability was found to be 1.12 with Etoposide + Vorinostat (first compound 0.01 µM); 1.04 with Etoposide + Vorinostat (first compound 0.03162 µM); 1.21 with Etoposide + Vorinostat (first compound 0.1 µM); 1.02 in the assay with Etoposide + Vorinostat (first compound 0.3162 µM); 0.727 with Etoposide + Vorinostat (first compound 1 µM); 0.914 with Bleomycin + Trametinib (first compound 0.01 µM). In addition, the relative viability was 0.924 with Bleomycin + Trametinib (first compound 0.03162 µM); 0.827 with Bleomycin + Trametinib (first compound 0.1 µM); 0.369 with Bleomycin + Trametinib (first compound 0.3162 µM); 0.388 in the assay with Bleomycin + Trametinib (first compound 1 µM); 0.104 with Bleomycin + Phenformin (first compound 0.01 µM); 0.0979 in the assay with Bleomycin + Phenformin (first compound 0.03162 µM). Moreover, the relative viability in the assay with Bleomycin + Phenformin (first compound 0.1 µM) was found to be 0.075; with Bleomycin + Phenformin (first compound 0.3162 µM), 0.0859; with Bleomycin + Phenformin (first compound 1 µM), 0.0579; with Bleomycin + Alpelisib (first compound 0.01 µM), 0.45; with Bleomycin + Alpelisib (first compound 0.03162 µM), 0.27; with Bleomycin + Alpelisib (first compound 0.1 µM) it was 0.224. Moreover, the relative viability worked out at 0.212 with Bleomycin + Alpelisib (first compound 0.3162 µM) and 0.162 with Bleomycin + Alpelisib (first compound 1 µM).

On to HCC-78, for which the relative viability with Etoposide + Vorinostat (first compound 0.01 µM) was 0.396; with Etoposide + Vorinostat (first compound 0.03162 µM), 0.494; with Etoposide + Vorinostat (first compound 0.1 µM) it was 0.329; with Etoposide + Vorinostat (first compound 0.3162 µM) it was 0.256; with Etoposide + Vorinostat (first compound 1 µM), 0.242; with Bleomycin + Trametinib (first compound 0.01 µM), 0.575. Besides, the relative viability with Bleomycin + Trametinib (first compound 0.03162 µM) stood at 0.679; with Bleomycin + Trametinib (first compound 0.1 µM), 0.651; with Bleomycin + Trametinib (first compound 0.3162 µM), 0.632; with Bleomycin + Trametinib (first compound 1 µM), 0.593; with Bleomycin + Phenformin (first compound 0.01 µM), 0.573; with Bleomycin + Phenformin (first compound 0.03162 µM), 0.74. In addition, the relative viability with Bleomycin + Phenformin (first compound 0.1 µM) came out at 0.581; with Bleomycin + Phenformin (first compound 0.3162 µM), 0.321; in the assay with Bleomycin + Phenformin (first compound 1 µM), 0.403; with Bleomycin + Alpelisib (first compound 0.01 µM), 0.287; in the assay with Bleomycin + Alpelisib (first compound 0.03162 µM), 0.266; with Bleomycin + Alpelisib (first compound 0.1 µM), 0.285. Also, the relative viability in the assay with Bleomycin + Alpelisib (first compound 0.3162 µM) turned out to be 0.222; in the assay with Bleomycin + Alpelisib (first compound 1 µM), 0.174.

On to HCC-366, for which the relative viability is 0.353 in the assay with Etoposide + Vorinostat (first compound 0.01 µM); 0.386 with Etoposide + Vorinostat (first compound 0.03162 µM); 0.122 with Etoposide + Vorinostat (first compound 0.1 µM); 0.0606 in the assay with Etoposide + Vorinostat (first compound 0.3162 µM); 0.0304 in the assay with Etoposide + Vorinostat (first compound 1 µM); 0.219 with Bleomycin + Trametinib (first compound 0.01 µM). The relative viability with Bleomycin + Trametinib (first compound 0.03162 µM) is 0.144; in the assay with Bleomycin + Trametinib (first compound 0.1 µM) it was 0.147; with Bleomycin + Trametinib (first compound 0.3162 µM), 0.0475; with Bleomycin + Trametinib (first compound 1 µM), 0.0448; with Bleomycin + Phenformin (first compound 0.01 µM) it was 0.455; with Bleomycin + Phenformin (first compound 0.03162 µM), 0.618. For the same cell line, the relative viability amounted to 0.423 with Bleomycin + Phenformin (first compound 0.1 µM); 0.159 with Bleomycin + Phenformin (first compound 0.3162 µM); 0.0675 with Bleomycin + Phenformin (first compound 1 µM); 0.345 with Bleomycin + Alpelisib (first compound 0.01 µM); 0.253 with Bleomycin + Alpelisib (first compound 0.03162 µM); 0.212 in the assay with Bleomycin + Alpelisib (first compound 0.1 µM). The relative viability with Bleomycin + Alpelisib (first compound 0.3162 µM) was determined as 0.042; with Bleomycin + Alpelisib (first compound 1 µM), 0.035.

For HCC-827, the relative viability with Etoposide + Vorinostat (first compound 0.01 µM) turned out to be 0.917; in the assay with Etoposide + Vorinostat (first compound 0.03162 µM) it was 0.972; with Etoposide + Vorinostat (first compound 0.1 µM) it was 0.746; with Etoposide + Vorinostat (first compound 0.3162 µM) it was 0.605; with Etoposide + Vorinostat (first compound 1 µM), 0.181; with Bleomycin + Trametinib (first compound 0.01 µM) it was 0.495. Besides, the relative viability with Bleomycin + Trametinib (first compound 0.1 µM) amounted to 0.502; in the assay with Bleomycin + Trametinib (first compound 0.3162 µM) it was 0.273; in the assay with Bleomycin + Trametinib (first compound 1 µM), 0.209; in the assay with Bleomycin + Phenformin (first compound 0.01 µM), 0.351; in the assay with Bleomycin + Phenformin (first compound 0.03162 µM), 0.311; in the assay with Bleomycin + Phenformin (first compound 0.1 µM), 0.361. Also, the relative viability with Bleomycin + Phenformin (first compound 0.3162 µM) was found to be 0.304; in the assay with Bleomycin + Phenformin (first compound 1 µM), 0.172; with Bleomycin + Alpelisib (first compound 0.01 µM), 0.925; with Bleomycin + Alpelisib (first compound 0.03162 µM), 1; in the assay with Bleomycin + Alpelisib (first compound 0.1 µM), 0.852; with Bleomycin + Alpelisib (first compound 0.3162 µM) it was 0.599. For the same cell line, the relative viability with Bleomycin + Alpelisib (first compound 1 µM) was 0.233.

In the case of HOP-62, the relative viability was determined as 0.631 with Etoposide + Vorinostat (first compound 0.01 µM); 0.711 with Etoposide + Vorinostat (first compound 0.03162 µM); 0.381 with Etoposide + Vorinostat (first compound 0.1 µM); 0.267 with Etoposide + Vorinostat (first compound 0.3162 µM); 0.115 with Etoposide + Vorinostat (first compound 1 µM); 0.34 in the assay with Bleomycin + Trametinib (first compound 0.01 µM). The relative viability with Bleomycin + Trametinib (first compound 0.03162 µM) is 0.278; with Bleomycin + Trametinib (first compound 0.1 µM), 0.264; with Bleomycin + Trametinib (first compound 0.3162 µM), 0.203; with Bleomycin + Trametinib (first compound 1 µM), 0.159; in the assay with Bleomycin + Phenformin (first compound 0.01 µM), 0.395; with Bleomycin + Phenformin (first compound 0.03162 µM), 0.447. Further, the relative viability in the assay with Bleomycin + Phenformin (first compound 0.1 µM) is 0.239; with Bleomycin + Phenformin (first compound 0.3162 µM), 0.185; with Bleomycin + Phenformin (first compound 1 µM) it was 0.105; with Bleomycin + Alpelisib (first compound 0.01 µM), 0.412; with Bleomycin + Alpelisib (first compound 0.03162 µM), 0.458; with Bleomycin + Alpelisib (first compound 0.1 µM), 0.185. Further, the values for the relative viability with Bleomycin + Alpelisib (first compound 0.3162 µM) and with Bleomycin + Alpelisib (first compound 1 µM) were 0.116 and 0.13, respectively.

For IA-LM, the relative viability in the assay with Etoposide + Vorinostat (first compound 0.01 µM) came out at 0.701; with Etoposide + Vorinostat (first compound 0.03162 µM), 1; with Etoposide + Vorinostat (first compound 0.1 µM), 0.577; with Etoposide + Vorinostat (first compound 0.3162 µM), 0.826; in the assay with Etoposide + Vorinostat (first compound 1 µM), 0.354; in the assay with Bleomycin + Alpelisib (first compound 0.01 µM) it was 0.514. Besides, the relative viability with Bleomycin + Alpelisib (first compound 0.03162 µM) is 0.614; with Bleomycin + Alpelisib (first compound 0.1 µM) it was 0.565; in the assay with Bleomycin + Alpelisib (first compound 0.3162 µM) it was 0.372; in the assay with Bleomycin + Alpelisib (first compound 1 µM), 0.246.

Take LC-2-ad: the relative viability came to 0.687 with Etoposide + Vorinostat (first compound 0.01 µM); 0.736 with Etoposide + Vorinostat (first compound 0.03162 µM); 0.69 with Etoposide + Vorinostat (first compound 0.1 µM); 0.459 with Etoposide + Vorinostat (first compound 0.3162 µM); 0.245 with Etoposide + Vorinostat (first compound 1 µM); 0.736 with Bleomycin + Trametinib (first compound 0.01 µM). Further, the relative viability with Bleomycin + Trametinib (first compound 0.03162 µM) came out at 0.674; with Bleomycin + Trametinib (first compound 0.1 µM), 0.541; with Bleomycin + Trametinib (first compound 0.3162 µM) it was 0.291; with Bleomycin + Trametinib (first compound 1 µM), 0.243; with Bleomycin + Phenformin (first compound 0.01 µM) it was 0.493; in the assay with Bleomycin + Phenformin (first compound 0.03162 µM), 0.536. Moreover, the relative viability is 0.385 with Bleomycin + Phenformin (first compound 0.1 µM); 0.283 with Bleomycin + Phenformin (first compound 0.3162 µM); 0.238 with Bleomycin + Phenformin (first compound 1 µM); 0.699 with Bleomycin + Alpelisib (first compound 0.01 µM); 0.66 with Bleomycin + Alpelisib (first compound 0.03162 µM); 0.307 with Bleomycin + Alpelisib (first compound 0.1 µM). Besides, the figures for the relative viability with Bleomycin + Alpelisib (first compound 0.3162 µM) and in the assay with Bleomycin + Alpelisib (first compound 1 µM) were 0.126 and 0.106, respectively.

The record behind these values is the supplement of paper PMC10307832.
